Test results reported in patent publication US20230321012A1 (priority 2021, published 2023).
Several values for one entry are separate records, joined by “and”; a condition that tells them apart may be missing. Equal values may be shown once.

Assays:
[1] = test system: polyamine transport in T cells (CD4+ and CD4- lymphocytes, whole human blood); test: Ex vivo blood-based PD bioassay: C5 (fluorescent spermine) uptake into stimulated T cells by FACS; assay type: cell-based
Description: To evaluate the target engagement activity of AMXT 1501 after oral administration in human patients, an ex vivo PD assay assessing lymphocyte spermine uptake and inhibition of uptake by AMXT 1501 was developed. Briefly, uptake of a fluorescent-labeled spermine analog conjugate (Fl-Spm, Compound 5, C5, Annereau, J. P., et al., A fluorescent biomarker of the polyamine transport system to select patients with AML for F14512 treatment. Leuk Res. 2010 October; 34(10):1383-9) was assayed by fluorescence-activated cell sorting (FACS) analysis in CD4+ and CD4^− T cells in human blood samples stimulated with anti-CD3+ and anti-CD28+ antibodies.
Polyamine uptake in blood lymphocytes (CD4^+ or CD8^+ T cells) was measured at the same time points as the PK levels for AMXT 1501 were measured. Comparisons were made between uptake in the pre-treatment sample and samples taken over time following dosing.
Pharmacodynamic Bioassay. The purpose of this whole blood assay was to quantify the inhibition of polyamine transport in T cells in human subjects receiving AMXT 1501. Collected whole blood from subjects receiving AMXT 1501 was diluted with serum-free media and stimulated with anti-CD3 (T cell receptor engagement) and anti-CD28 (co-stimulatory signal) to drive T cell activation and proliferation for a total of three days. During the last 12-18 hours of culture, a fluorescently-labeled spermine analog (Fl-Spm, Compound 5, C5) was added to the in vitro culture to monitor polyamine uptake into cells. The functional activity (e.g., inhibitory effect) of AMXT 1501 on C5 uptake by T cells was then determined using flow cytometry by measuring the frequency and median fluorescence intensity (MFI) of C5 in T cells. Activation and proliferation of T cells is required for the uptake of C5; however, in the presence of high concentrations of AMXT 1501 in vitro, C5 uptake is inhibited despite active proliferation of T cells. Therefore, a whole blood sample spiked with high levels of AMXT 1501 prior to culture will be used as a positive control for each subject in this assay. […]

[2] = mouse, in vivo
four tumor cell lines = details: average, growth of four cell lines in culture; read-out: in vitro EC50 against cancer cells; cited from earlier work
in vivo = details: male, Th-MYCN, mouse
Description: Male Th-MYCN mice, approximately 5-6 weeks of age, with spontaneous neuroblastoma tumor development commenced treatment according to Table 6.1 when tumors were approximately 5 mm in size. […] Time point: three treatments, cull 24 hours after last treatment in the morning.
Sample Preparation. Animals were euthanized on the morning of the 4th day, after three days of treatment and shaved, and then the carcasses were frozen. Tissues stored at −80° C. were placed inside the cryostat. The temperature of the cryostat was maintained around −20° C. and −40° C. 20-am tissue sections in the sagittal plane going through the left eye were obtained for each carcass. Tissue sections were mounted directly on indium tin oxide (ITO) slides.
Tissue sections on ITO slides were placed in a desiccator for 15 minutes before matrix deposition. An image of the slides was then acquired with a scanner to synchronize positions of the tissue sections with the target of the laser.
Dilution series of the test items were prepared in water from the stock solutions. […] A spot of pure solvent was added as a negative control. Slides were then placed in a desiccator for 15 minutes before MALDI matrix deposition. The control liver tissue consisted of a liver homogenate spiked with an olanzapine standard at 40 g/g of tissue. Sections of the liver homogenate were prepared and added on each ITO slide in order to monitor the signal of the FTICR through the different acquisitions and thus validate the comparison between slides.
For AMXT 1501, 2,5-dihydroxybenzoic acid (DHB) at 40 mg/ml in 1:1 MeOH/H2O with 1% trifluoroacetic acid (TFA) and 25 nM of ^13C4-AMXT 1501 was sprayed on the samples with an automatic sprayer (TM-Sprayer, HTX-Imaging).
The mass spectrometry imaging (MSI) acquisitions were performed using the parameters in Table 6.2 with a data reduction parameter set at 95%. MSI data were acquired and analyzed with FlexImaging 4.1 (Bruker Daltonics), Data Analysis 4.0 (Bruker Daltonics) and Multimaging™ 1.2.2 (ImaBioTech).
Intensity scales representing the molecular signal were adjusted for each image to discriminate the noise from the molecular signal but also to give the best visualization of the signal across the sections. […] Convolution step was performed on the original images using a normalized uniform kernel, which averages the values around a position. The kernel size was manually optimized for the analysis, minimizing the background noise. Based on the MSI data set on the tissue sections and the dilution series, the quantitation of the test items was performed with the IS approach. A correlation between the calibration curve and the signal obtained on the tissues was performed in order to determine the concentration of the test items per histological structure in g/g of tissue and μM.

[3] = AMXT 1501 level in tumor biopsy of a melanoma patient; details: male, human, in vivo

In the case of `CCCCCCCCCCCCCCCC(=O)NCCCC[C@@H](N)C(=O)NCCCNCCCCNCCCN` [AMXT 1501, D-lys(palmitoyl)-spermine], the EC50 ([1]; Homo sapiens, T-cell, read-out: ED50, inhibition of fluorescent-labeled spermine uptake) is reported as roughly 75 nM, the “ex vivo target engagement activity in patient whole blood” value ([1]; several Part 2 Cohort 3 patients, Day 7-8, oral AMXT 1501 dicaprate, preliminary) is reported as “sustained AMXT 1501 target engagement activity” and the “concentration of maximal fluorescent-labeled spermine uptake inhibition” value ([1]; whole human blood, absence of DFMO) is reported as 250 nM. The “effect of DFMO on AMXT 1501 tumor retention” value [2] was “no effect”, the “tumor AUC, AMXT 1501” value [2] was 152,000 hr*ng/mL and the “tumor AUC0-∞, AMXT 1501” value ([2]; sc, 2.5 mg/kg) was 138,000 hr*ng/mL. The EC50 (four tumor cell lines) was 51 nM, the concentration at 96 h (in vivo; brown fat, sc, 2.5 mg/kg) was 8330 ng/g and the concentration at 96 h (in vivo; cardiac blood, sc, 2.5 mg/kg) was 8370 ng/g. The concentration at 96 h (in vivo; eye, sc, 2.5 mg/kg) was 9300 ng/g, the concentration at 96 h (in vivo; intestine contents, sc, 2.5 mg/kg) was 8470 ng/g and the concentration at 96 h (in vivo; intestine wall, sc, 2.5 mg/kg) was 9000 ng/g. For the same compound, the concentration at 96 h (in vivo; intestine wall, subcutaneous, 2.5 mg/kg) was 11400 ng/g, the concentration at 96 h (in vivo; kidney, sc, 2.5 mg/kg) was 5640 ng/g and the concentration at 96 h (in vivo; kidney, subcutaneous, 2.5 mg/kg) was 12100 ng/g. For the same compound, the concentration at 96 h (in vivo; liver, sc, 2.5 mg/kg) was 8870 ng/g, the concentration at 96 h (in vivo; liver, subcutaneous, 2.5 mg/kg) was 9530 ng/g and the concentration at 96 h (in vivo; lung, sc, 2.5 mg/kg) was 14500 ng/g. It also gave a concentration at 96 h (in vivo; lung, subcutaneous, 2.5 mg/kg) of 17000 ng/g, a concentration at 96 h (in vivo; myocardium, sc, 2.5 mg/kg) of 8440 ng/g and a concentration at 96 h (in vivo; myocardium, subcutaneous, 2.5 mg/kg) of 9590 ng/g. For the same compound, the concentration at 24 h (in vivo; organs (range across organs), subcutaneous, 2.5 mg/kg) was 3360 ng/g to 17000 ng/g and 5.9 µM to 29.9 µM, the concentration at 24 h (in vivo; organs, range from intestine contents to lung, subcutaneous, 2.5 mg/kg) was 3360 to 17000 ng/g and the concentration at 96 h (in vivo; pancreas, sc, 2.5 mg/kg) was 8430 ng/g. For the same compound, the concentration at 96 h (in vivo; pancreas, subcutaneous, 2.5 mg/kg) was 8540 ng/g, the concentration at 96 h (in vivo; spleen, subcutaneous, 2.5 mg/kg) was 12900 ng/g and the concentration at 96 h (in vivo; stomach contents, sc, 2.5 mg/kg) was 8800 ng/g. It also gave a concentration at 96 h (in vivo; stomach contents, subcutaneous, 2.5 mg/kg) of 8480 ng/g, a concentration at 96 h (in vivo; stomach wall, sc, 2.5 mg/kg) of 8550 ng/g and a concentration at 96 h (in vivo; stomach wall, subcutaneous, 2.5 mg/kg) of 8810 ng/g. It also gave a concentration at 96 h (in vivo; testis, sc, 2.5 mg/kg) of 9160 ng/g, a concentration at 96 h (in vivo; testis, subcutaneous, 2.5 mg/kg) of 9820 ng/g and a concentration at 96 h (in vivo; thymus, sc, 2.5 mg/kg) of 10700 ng/g. For the same compound, the concentration at 96 h (in vivo; thymus, subcutaneous, 2.5 mg/kg) was 13900 ng/g, the concentration at 96 h (in vivo; tumor, sc, 2.5 mg/kg) was 10000 ng/g and the concentration at 24 h (in vivo; tumor, subcutaneous) was 12.7 µM. The concentration at 24 h (in vivo; tumor, subcutaneous, 2.5 mg/kg) was 7230 ng/mL and 10000 ng/g and 17.6 µM and the Kp [3] was 14.6.
